“And” between values parts separate entries of the source, which are not always exact repeats. Equal entries are not always repeated. “Also recorded” adds a separate entry of the source. Positions of bridges follow the written chain, without caps; N, C: chain ends. Residues, ends and D or L forms follow the SMILES beside them.
Legend:
[1] = Studies of systemic circulation (dose titration) after rectal application of the gel: arterial pressure and pulse rate; format: in vivo, Wistar rats
Experimental: The concentration of vasoconstrictive substance in the radioprotective gels according to the invention was determined according to the desire to provide a local vasoconstrictive effect (with subsequent hypoxia) in the mucosa, but without general secondary effect, such as blood pressure increase and bradycardia. To achieve this, dose titration studies of the different vasoconstrictive substances were carried out, i.e. the dose just below the threshold of general circulatory response was defined. Due to interaction (electrostatic binding) between the active substance and the different thickening agents, the dose for a specific vasoconstrictive substance varied depending upon the thickening agent employed.
For studies of systematic circulation, Wistar rats (body weight 177-296 g) were used. TGLVP was administered rectally by means of a Nelaton-Foley catheter inserted through the anus until the balloon was 5 cm away from the anus. The balloon was then filled to ensure that the catheter stayed in position and to prevent TGLVP from reaching the upper parts of the bowel. TGLVP was dissolved in a 1% by weight aqueous solution of sodium carboxymethyl cellulose (CMC) and was in contact with all parts of the mucosa during the test. The volume applied amounted to half a milliliter. Three dose levels of TGLVP were tested, i.e. 800 µg, 1600 µg and 3200 µg. For each dose level, use was made of five rats and a corresponding number of controls which were given CMC solution only. For anaesthesia, nembutal was used intraperitoneally. Mean values for arterial pressure and puls rate were recorded by means of a catheter in the aorta via the femoral artery.
Dose titration was carried out in a similar manner on AVP, LVP, TGLVP with other thickening agents, Angiotensin II and norepinephrine.

[2] = system: Irradiation-induced lesions in the mucosa; test: Radioprotective effect of rectally applied gel on irradiated rectal mucosa: histological grading and body weight; format: in vivo, Wistar rats; conditions: for Body weight change / Change of glandular structure / Fibrosis / Ulceration - abscessa development in crypts / Sum of parameters: one value per rat; for Sum of parameters: histological grading
Experimental: For studies of the radioprotective effect of TGLVP Wistar rats (body weight 187-394 g) were used and treated in pairs at the same time. In each pair, one rat was treated rectally with TGLVP, while the other rat, the control rat, was given CMC solution rectally. The gels were applied in the same manner as described above. For anaesthesia, nembutal was given intraperitoneally. The rats were irradiated with 240 kV X-rays (0.2 Cu filtration), using AP and PA fields in size 4 × 3 cm. This gave a uniform dose in the lower part of the abdomen corresponding to the position of the rectum. 10 Gy were given on day 1, and 10 Gy on day 4. The rats were killed 14 days after the treatment, and the rectum was removed for histological analysis. The rats were weighed before treatment and when they were killed. 10 rats were treated with 1600 µg TGLVP 15 min before irradiation (Tables IV and V) 5 rats were treated with 800 µg TGLVP 15 min before irradiation (Table V) 10 rats were given 1600 µg TGLVP 30 min before treatment (Table III) 5 rats were given 3200 µg TGLVP 15 min before treatment (Table I) 5 rats were given 3200 µg TGLVP 30 min before treatment (Table II)
Histological grading (sum of parameters) was performed in accordance with an evaluation system in which 0 is the normal structure and 6 indicates maximum change. Irradiation-induced lesions in the mucosa were determined arbitrarily by means of the following parameters: • 1: The extent of fibrosis in the mucosa and submucosa. • 2: The change of glandular structure in the mucosa. • 3: Ulcerations in the mucosa or abscesses in mucosal crypts.

[3] = TGLVP 3200 µg/g in 1 weight% carboxymethyl cellulose, dose 1600 µg, 30 min before irradiation
[4] = TGLVP 3200 µg/g in 1 weight% carboxymethyl cellulose, dose 1600 µg, 30 min before irradiation, grade 0-6
[5] = TGLVP 6400 µg/g in 1 weight% carboxymethyl cellulose, dose 3200 µg, 15 min before irradiation, grade 0-6
[6] = TGLVP 6400 µg/g in 1 weight% carboxymethyl cellulose, dose 3200 µg, 30 min before irradiation
[7] = TGLVP 6400 µg/g in 1 weight% carboxymethyl cellulose, dose 3200 µg, 30 min before irradiation, grade 0-6

In the case of `NCCCC[C@H](NC(=O)[C@@H]1CCCN1C(=O)[C@@H]1CSSC[C@H](NC(=O)CNC(=O)CNC(=O)CN)C(=O)N[C@@H](Cc2ccc(O)cc2)C(=O)N[C@@H](Cc2ccccc2)C(=O)N[C@@H](CCC(N)=O)C(=O)N[C@@H](CC(N)=O)C(=O)N1)C(=O)NCC(N)=O` [TGLVP, triglycyl-lysine-vasopressin] (H-GGGCYFQNCPKG-NH2; disulfide 4-9), the circulatory changes ([1]; 128 µg in 0.9% by weight hydroxypropyl cellulose solution) is reported as “without changes”, the circulatory changes ([1]; 128 µg in 1.2% by weight hydroxyethyl cellulose solution) is reported as “no circulatory changes” and the circulatory changes ([1]; 256 µg in 0.9% by weight hydroxypropyl cellulose solution) is reported as “without changes”. For the same compound, the blood pressure ([1]; 256 µg in 1.2% by weight hydroxyethyl cellulose solution, at 75 and 90 minutes after application) was “gave a rise in blood pressure”, the pulse rate ([1]; 256 µg in 1.2% by weight hydroxyethyl cellulose solution, at 5 minutes after application) was “decrease in pulse rate” and the “circulatory changes (pulse)” value ([1]; 512 µg in 0.9% by weight hydroxypropyl cellulose solution, 15-120 minutes after application) was “gave a bradycardia”. The pulse rate ([1]; 512 µg in 1.2% by weight hydroxyethyl cellulose solution, 10-45 minutes after application) was “bradycardia”, the blood pressure ([1]; 512 µg in 1.2% by weight hydroxyethyl cellulose solution, 30 and 45 minutes after application) was “gave a rise in blood pressure” and the “systemic circulatory response in the form of blood pressure increase or lower pulse” value ([1]; 800 µg rectally in 1% by weight sodium carboxymethyl cellulose (CMC)) was “no systemic circulatory response”. For the same compound, the “systemic circulatory response in the form of blood pressure increase or lower pulse” value ([1]; 1600 µg rectally in 1% by weight sodium carboxymethyl cellulose (CMC)) was “no systemic circulatory response; also recorded: without general circulatory responses”, the “systemic circulatory response in the form of blood pressure increase or lower pulse” value ([1]; 3200 µg rectally in 1% by weight sodium carboxymethyl cellulose (CMC)) was “caused blood pressure increase in several animals” and the “function of the gel in radioprotective experiments” value (from here on “function of the gel”) ([2]; 1600-6400 µg per g of 1% by weight carboxymethyl cellulose in sterile deionised water) was “found to function as intended”. For the same compound, the “Body weight change” value [2, 3] was 14 g and 3 g and 18 g and 7 g and 5 g, the “Change of glandular structure” value [2, 4] was 2 (4×) and 4 and the Fibrosis [2, 4] was 4 (4×) and 2. The “Ulceration - abscessa development in crypts” value (from here on “Ulceration”) [2, 4] was 0 (3×) and 2 (2×), the Sum of parameters [2, 3] was 6 (4×) and 10 and the Fibrosis ([2]; TGLVP 6400 µg/g in 1 weight% carboxymethyl cellulose, dose 3200 µg rectally 15 min before irradiation (10 Gy day 1 and day 4), grade 0 normal, 6 maximum change, killed 14 days after treatment) was 4 and 2 (4×). The “Body weight change” value ([2]; TGLVP 6400 µg/g in 1 weight% carboxymethyl cellulose, dose 3200 µg, 15 min before irradiation, before treatment vs when killed) was 9 g and 4 g and 7 g and 15 g and 12 g, the “Change of glandular structure” value [2, 5] was 4 and 2 (2×) and 0 (2×) and the “Ulceration” value [2, 5] was 4 and 2 and 0 (3×). For the same compound, the Sum of parameters ([2]; TGLVP 6400 µg/g in 1 weight% carboxymethyl cellulose, dose 3200 µg, 15 min before irradiation) was 12 and 6 and 2 (2×) and 4, the “Body weight change” value [2, 6] was 24 g and 7 g and 13 g and -2 g and 38 g and the “Change of glandular structure” value [2, 7] was 0 (2×) and 4 and 2 (2×). For the same compound, the Fibrosis [2, 7] was 4, the “Ulceration” value [2, 7] was 0 (2×) and 4 and 2 (2×) and the Sum of parameters [2, 6] was 4 and 12 and 6 (2×) and 8. For the same compound, the radioprotective effect ([2]; dose of 1600 µg, rats) was “maximum radioprotective effect”, the “radioprotection to the mucosa as compared with the controls” value ([2]; dose of 3200, 1600 or 800 µg, irradiation 15 or 30 min after administration, summary of Tables I-V) was “gave radioprotection to the mucosa” and the “radioprotection: effect of higher dose or longer time” value ([2]; increase of dose from 1600 µg to 3200 µg, or of time from 15 to 30 min, compared with 1600 µg at 15 min, Tables I-IV) was “does not seem to give a better result”. For the same compound, the “protection, from body weight values” ([2]; increasing the dose from 800 µg to 1600 µg, 15 min before irradiation, Table V) was “improved protection”.

With `NC[C@H](O)c1ccc(O)c(O)c1` [norepinephrine] the “function of the gel” value ([2]; 2 mg per g of 0.6% by weight hydroxyethyl cellulose in sterile deionised water) was “found to function as intended” and the “cases with radioprotection to the mucosa, as compared with the controls” value ([2]; dose of 1 mg, irradiation 15 min after administration, Table IX) was 5 out of 6.

With Angiotensin II the “function of the gel” value ([2]; 250 µg per g of 0.6% by weight hydroxyethyl cellulose in sterile deionised water) was “found to function as intended” and the “cases with radioprotection to the mucosa, as compared with the controls” value ([2]; dose of 125 µg, irradiation 15 min after administration, Table VIII) was 5 out of 6.

In the case of “Angiotensin II (DRVYIHPF; Angiotensin-2; UniProt P01019 25-32, looked up)”, the “changes in blood pressure or pulse rate” value ([1]; doses of 0.1 µg to 500 µg in 0.6% by weight hydroxyethyl cellulose solution, even at the highest dose level, 75 or 140 minutes of follow-up) is reported as “no significant changes in blood pressure or pulse rate”.

For arginine-vasopressin [AVP], the “influence on blood pressure” value ([1]; 25 µg in 0.2% by weight carboxypolymethylene solution, pulse rate not measured) was “without any significant influence on blood pressure”, the “influence on blood pressure” value ([1]; 50 µg in 0.2% by weight carboxypolymethylene solution, pulse rate not measured) was “without any significant influence on blood pressure” and the “function of the gel” value ([2]; 10 µg per g of 0.2% by weight carboxypolymethylene in sterile deionised water) was “found to function as intended”. For the same compound, the “radioprotection to the mucosa as compared with the controls” value ([2]; dose of 10 µg, irradiation 10 min after administration, Table VI, histological grading only) was “gave radioprotection to the mucosa”.

In the case of lysine-vasopressin [LVP], the “changes in systemic circulation” value ([1]; 4 µg in 1.2% by weight hydroxyethyl cellulose solution) is reported as “without significant changes in systemic circulation”, the “changes in systemic circulation” value ([1]; 8 µg in 1.2% by weight hydroxyethyl cellulose solution) is reported as “without significant changes in systemic circulation” and the “change in blood pressure” value ([1]; 10 µg in 0.2% by weight carboxypolymethylene solution, pulse rate not measured) is reported as “without any significant change in blood pressure”. For the same compound, the “change in blood pressure” value ([1]; 10 µg in 1% by weight sodiumcarboxymethyl cellulose (CMC) solution, pulse rate not measured) was “without any change in blood pressure”, the “changes in systemic circulation” value ([1]; 16 µg in 1.2% by weight hydroxyethyl cellulose solution) was “without significant changes in systemic circulation; also recorded: caused no significant change in systemic circulation” and the “change in blood pressure” value ([1]; 20 µg in 0.2% by weight carboxypolymethylene solution, pulse rate not measured) was “without any significant change in blood pressure”. The “change in blood pressure” value ([1]; 20 µg in 1% by weight sodiumcarboxymethyl cellulose (CMC) solution, pulse rate not measured) was “without any change in blood pressure”, the pulse rate ([1]; 32 µg in 1.2% by weight hydroxyethyl cellulose solution) was “No decrease in pulse rate was noted” and the blood pressure ([1]; 32 µg in 1.2% by weight hydroxyethyl cellulose solution, 5, 10, 15, 20, 25, 30, 45, 75 and 90 minutes after application) was “caused a rise in blood pressure”. The “change in blood pressure” value ([1]; 40 µg in 0.2% by weight carboxypolymethylene solution, significant at 10, 15, 20, 25, 45 and 60 minutes after application) was “gave a rise in blood pressure”, the “change in blood pressure” value ([1]; 40 µg in 1% by weight sodiumcarboxymethyl cellulose (CMC) solution, pulse rate not measured) was “without any change in blood pressure” and the “change in blood pressure” value ([1]; 80 µg in 0.2% by weight carboxypolymethylene solution, significant 5-60 minutes after application) was “gave a rise in blood pressure”. The “change in blood pressure” value ([1]; 80 µg in 1% by weight sodiumcarboxymethyl cellulose (CMC) solution, 5-45 minutes after application) was “caused a rise in blood pressure”, the “function of the gel” value ([2]; 32 µg per g of 1.2% by weight hydroxyethyl cellulose in sterile deionised water) was “found to function as intended” and the “radioprotection to the mucosa” value ([2]; dose of 16 µg, irradiation 15 min after administration, Table VII) was “gave radioprotection to the mucosa”.
